System: not listed separately
Assay: Acute toxicity (LD50) in mice
Assay type: in vivo, mouse
Conditions: mouse, in vivo; male mice; oral; observed for seven days
Text: Evaluation of the Toxicity (LD50)
Ten male mice for each group were orally treated with drugs at different dose levels for the determination of lethal dose 50 (LD50).

Compound | LD50 at 168 h [mg/kg]
CN1C[C@H](CC(C#N)C(N)=O)C[C@@H]2c3cccc4[nH]cc(c34)C[C@H]21 (stereo partly drawn) [355/1057, 2-Cyano-3-(6'-methylergoline-8'β)-propionamide] | > 1000
CN1C[C@H](CC(C#N)C(=O)NCc2ccccc2)C[C@@H]2c3cccc4[nH]cc(c34)C[C@H]21 (stereo partly drawn) [Example 1131, 2-Cyano-3-(6'-methylergoline-8'β)-N-benzylpropionamide] | > 1000

System: normotensive rats
Assay: Blood pressure and heart rate in the conscious normotensive rat (NR)
Assay type: in vivo
Conditions: 5 mg/kg os, 30'
Experimental: Blood pressure recordings have been made in conscious normotensive unrestrained rats weighing approximately 300 g, via a catheter chronically inserted into the left common carotid artery. Implantation of arterial cannula was made under sodium pentobarbital anesthesia (50 mg/kp i.p.) A 1 cm long incision was made through the previously shaved ventral surface of the neck and the tissues overlying the trachea parted by blunt dissection to reveal the carotid artery. The polyethylene catheter used was made with PE 50 tubing, previously filled with saline containing 250 I.U./ml heparin. The tip of the cannula was pushed at least 2 cm inside the vessel toward the heart. The cannula was then firmly tied and passed beneath the skin to emerge from a small incision in the back of the neck. During the post-operative period and before the start of each recording session, the cannula was flushed through daily with saline containing heparin (250 I.U./ml). The experiments were performed two days after surgery. Drugs were administered by gastric gavage.

Compound | Change in Blood Pressure after Treatment, 30' [mm Hg] | Change in heart rate after treatment, 30' [b/min]
CN1C[C@H](CC(C#N)C(N)=O)C[C@@H]2c3cccc4[nH]cc(c34)C[C@H]21 (stereo partly drawn) [355/1057, 2-Cyano-3-(6'-methylergoline-8'β)-propionamide] | -23 | -25
CN1C[C@H](CC(C#N)C(=O)NCc2ccccc2)C[C@@H]2c3cccc4[nH]cc(c34)C[C@H]21 (stereo partly drawn) [Example 1131, 2-Cyano-3-(6'-methylergoline-8'β)-N-benzylpropionamide] | -22 | -20

Same assay, conditions: 5 mg/kg os, 60'

Compound | Change in Blood Pressure after Treatment, 60' [mm Hg] | Change in heart rate after treatment, 60' [b/min]
CN1C[C@H](CC(C#N)C(N)=O)C[C@@H]2c3cccc4[nH]cc(c34)C[C@H]21 (stereo partly drawn) [355/1057, 2-Cyano-3-(6'-methylergoline-8'β)-propionamide] | -23 | -40
CN1C[C@H](CC(C#N)C(=O)NCc2ccccc2)C[C@@H]2c3cccc4[nH]cc(c34)C[C@H]21 (stereo partly drawn) [Example 1131, 2-Cyano-3-(6'-methylergoline-8'β)-N-benzylpropionamide] | -22 | -30

Same assay, conditions: 5 mg/kg os, 120'

Compound | Change in Blood Pressure after Treatment, 120' [mm Hg] | Change in heart rate after treatment, 120' [b/min]
CN1C[C@H](CC(C#N)C(N)=O)C[C@@H]2c3cccc4[nH]cc(c34)C[C@H]21 (stereo partly drawn) [355/1057, 2-Cyano-3-(6'-methylergoline-8'β)-propionamide] | -22 | -42
CN1C[C@H](CC(C#N)C(=O)NCc2ccccc2)C[C@@H]2c3cccc4[nH]cc(c34)C[C@H]21 (stereo partly drawn) [Example 1131, 2-Cyano-3-(6'-methylergoline-8'β)-N-benzylpropionamide] | -23 | -20

Same assay, conditions: 5 mg/kg os, 180'

Compound | Change in Blood Pressure after Treatment, 180' [mm Hg] | Change in heart rate after treatment, 180' [b/min]
CN1C[C@H](CC(C#N)C(N)=O)C[C@@H]2c3cccc4[nH]cc(c34)C[C@H]21 (stereo partly drawn) [355/1057, 2-Cyano-3-(6'-methylergoline-8'β)-propionamide] | -21.7 | -22
CN1C[C@H](CC(C#N)C(=O)NCc2ccccc2)C[C@@H]2c3cccc4[nH]cc(c34)C[C@H]21 (stereo partly drawn) [Example 1131, 2-Cyano-3-(6'-methylergoline-8'β)-N-benzylpropionamide] | -20 | -20

Same assay, conditions: 5 mg/kg os, 240'

Compound | Change in Blood Pressure after Treatment, 240' [mm Hg] | Change in heart rate after treatment, 240'
CN1C[C@H](CC(C#N)C(N)=O)C[C@@H]2c3cccc4[nH]cc(c34)C[C@H]21 (stereo partly drawn) [355/1057, 2-Cyano-3-(6'-methylergoline-8'β)-propionamide] | -23 | +10 b/min
CN1C[C@H](CC(C#N)C(=O)NCc2ccccc2)C[C@@H]2c3cccc4[nH]cc(c34)C[C@H]21 (stereo partly drawn) [Example 1131, 2-Cyano-3-(6'-methylergoline-8'β)-N-benzylpropionamide] | -19 | -10 b/min

Same assay, conditions: 5 mg/kg os, 360'

Compound | Change in Blood Pressure after Treatment, 360' [mm Hg] | Change in heart rate after treatment, 360'
CN1C[C@H](CC(C#N)C(N)=O)C[C@@H]2c3cccc4[nH]cc(c34)C[C@H]21 (stereo partly drawn) [355/1057, 2-Cyano-3-(6'-methylergoline-8'β)-propionamide] | -20 | +3 b/min
CN1C[C@H](CC(C#N)C(=O)NCc2ccccc2)C[C@@H]2c3cccc4[nH]cc(c34)C[C@H]21 (stereo partly drawn) [Example 1131, 2-Cyano-3-(6'-methylergoline-8'β)-N-benzylpropionamide] | -10 | +10 b/min

Same assay, conditions: 5 mg/kg os, 24h

Compound | Change in Blood Pressure after Treatment, 24h [mm Hg] | Change in heart rate after treatment, 24h
CN1C[C@H](CC(C#N)C(N)=O)C[C@@H]2c3cccc4[nH]cc(c34)C[C@H]21 (stereo partly drawn) [355/1057, 2-Cyano-3-(6'-methylergoline-8'β)-propionamide] | -12 | +6 b/min
CN1C[C@H](CC(C#N)C(=O)NCc2ccccc2)C[C@@H]2c3cccc4[nH]cc(c34)C[C@H]21 (stereo partly drawn) [Example 1131, 2-Cyano-3-(6'-methylergoline-8'β)-N-benzylpropionamide] | 0 | +10 b/min

System: spontaneously hypertensive male rats, strain MHS
Assay: Anti-hypertensive activity in the spontaneously hypertensive rat (MHS): blood pressure and heart rate at the tail
Assay type: in vivo
Conditions: 2 mg/kg os, first day, 1 hr after dose
Experimental: 1. Spontaneously Hypertensive Rat (MHS)
Four spontaneously hypertensive male rats, strain MHS, weight 250 to 300 g for each group were used. The animals were treated for four consecutive days. The drugs were administered by gastric gavage while suspended in 5% arabic gum (0.2 ml/100 g body weight), and blood pressure (BP) and heart rate (HR) were measured at the tail by BP Recorder W+W. Blood pressure and heart rate were measured on the first and fourth day of treatment 1 hour before and 1 and 5 hours after drug administration.

Compound | Change in BP, 1 hr after dose, first day [mm Hg] | Change in HR, 1 hr after dose, first day [b/min]
CN1C[C@H](CC(C#N)C(N)=O)C[C@@H]2c3cccc4[nH]cc(c34)C[C@H]21 (stereo partly drawn) [355/1057, 2-Cyano-3-(6'-methylergoline-8'β)-propionamide] | -25 | 0
CN1C[C@H](CC(C#N)C(=O)NCc2ccccc2)C[C@@H]2c3cccc4[nH]cc(c34)C[C@H]21 (stereo partly drawn) [Example 1131, 2-Cyano-3-(6'-methylergoline-8'β)-N-benzylpropionamide] | -26 | -20

Same assay, conditions: 2 mg/kg os, first day, 5 hr after dose

Compound | Change in HR, 5 hr after dose, first day
CN1C[C@H](CC(C#N)C(N)=O)C[C@@H]2c3cccc4[nH]cc(c34)C[C@H]21 (stereo partly drawn) [355/1057, 2-Cyano-3-(6'-methylergoline-8'β)-propionamide] | -8 b/min
CN1C[C@H](CC(C#N)C(=O)NCc2ccccc2)C[C@@H]2c3cccc4[nH]cc(c34)C[C@H]21 (stereo partly drawn) [Example 1131, 2-Cyano-3-(6'-methylergoline-8'β)-N-benzylpropionamide] | +5 b/min

Same assay, conditions: 2 mg/kg os, first day, 5 hrs after dose

Compound | Change in BP, 5 hrs after dose, first day [mm Hg]
CN1C[C@H](CC(C#N)C(N)=O)C[C@@H]2c3cccc4[nH]cc(c34)C[C@H]21 (stereo partly drawn) [355/1057, 2-Cyano-3-(6'-methylergoline-8'β)-propionamide] | 0
CN1C[C@H](CC(C#N)C(=O)NCc2ccccc2)C[C@@H]2c3cccc4[nH]cc(c34)C[C@H]21 (stereo partly drawn) [Example 1131, 2-Cyano-3-(6'-methylergoline-8'β)-N-benzylpropionamide] | -9

Same assay, conditions: 2 mg/kg os, fourth day, 1 hr after dose

Compound | Change in BP, 1 hr after dose, fourth day [mm Hg] | Change in HR, 1 hr after dose, fourth day [b/min]
CN1C[C@H](CC(C#N)C(N)=O)C[C@@H]2c3cccc4[nH]cc(c34)C[C@H]21 (stereo partly drawn) [355/1057, 2-Cyano-3-(6'-methylergoline-8'β)-propionamide] | -26 | -2
CN1C[C@H](CC(C#N)C(=O)NCc2ccccc2)C[C@@H]2c3cccc4[nH]cc(c34)C[C@H]21 (stereo partly drawn) [Example 1131, 2-Cyano-3-(6'-methylergoline-8'β)-N-benzylpropionamide] | -22 | -55

Same assay, conditions: 2 mg/kg os, fourth day, 5 hr after dose

Compound | Change in HR, 5 hr after dose, fourth day
CN1C[C@H](CC(C#N)C(N)=O)C[C@@H]2c3cccc4[nH]cc(c34)C[C@H]21 (stereo partly drawn) [355/1057, 2-Cyano-3-(6'-methylergoline-8'β)-propionamide] | -5 b/min
CN1C[C@H](CC(C#N)C(=O)NCc2ccccc2)C[C@@H]2c3cccc4[nH]cc(c34)C[C@H]21 (stereo partly drawn) [Example 1131, 2-Cyano-3-(6'-methylergoline-8'β)-N-benzylpropionamide] | +5 b/min

Same assay, conditions: 2 mg/kg os, fourth day, 5 hrs after dose

Compound | Change in BP, 5 hrs after dose, fourth day [mm Hg]
CN1C[C@H](CC(C#N)C(N)=O)C[C@@H]2c3cccc4[nH]cc(c34)C[C@H]21 (stereo partly drawn) [355/1057, 2-Cyano-3-(6'-methylergoline-8'β)-propionamide] | -31
CN1C[C@H](CC(C#N)C(=O)NCc2ccccc2)C[C@@H]2c3cccc4[nH]cc(c34)C[C@H]21 (stereo partly drawn) [Example 1131, 2-Cyano-3-(6'-methylergoline-8'β)-N-benzylpropionamide] | -25

Same assay, conditions: 5 mg/kg os, first day, 1 hr after dose

Compound | Change in BP, 1 hr after dose, first day [mm Hg] | Change in HR, 1 hr after dose, first day
CN1C[C@H](CC(C#N)C(N)=O)C[C@@H]2c3cccc4[nH]cc(c34)C[C@H]21 (stereo partly drawn) [355/1057, 2-Cyano-3-(6'-methylergoline-8'β)-propionamide] | -51 | +5 b/min
CN1C[C@H](CC(C#N)C(=O)NCc2ccccc2)C[C@@H]2c3cccc4[nH]cc(c34)C[C@H]21 (stereo partly drawn) [Example 1131, 2-Cyano-3-(6'-methylergoline-8'β)-N-benzylpropionamide] | -48 | -18 b/min

Same assay, conditions: 5 mg/kg os, first day, 5 hr after dose

Compound | Change in HR, 5 hr after dose, first day
CN1C[C@H](CC(C#N)C(N)=O)C[C@@H]2c3cccc4[nH]cc(c34)C[C@H]21 (stereo partly drawn) [355/1057, 2-Cyano-3-(6'-methylergoline-8'β)-propionamide] | +35 b/min
CN1C[C@H](CC(C#N)C(=O)NCc2ccccc2)C[C@@H]2c3cccc4[nH]cc(c34)C[C@H]21 (stereo partly drawn) [Example 1131, 2-Cyano-3-(6'-methylergoline-8'β)-N-benzylpropionamide] | +10 b/min

Same assay, conditions: 5 mg/kg os, first day, 5 hrs after dose

Compound | Change in BP, 5 hrs after dose, first day [mm Hg]
CN1C[C@H](CC(C#N)C(N)=O)C[C@@H]2c3cccc4[nH]cc(c34)C[C@H]21 (stereo partly drawn) [355/1057, 2-Cyano-3-(6'-methylergoline-8'β)-propionamide] | -41
CN1C[C@H](CC(C#N)C(=O)NCc2ccccc2)C[C@@H]2c3cccc4[nH]cc(c34)C[C@H]21 (stereo partly drawn) [Example 1131, 2-Cyano-3-(6'-methylergoline-8'β)-N-benzylpropionamide] | -43

Same assay, conditions: 5 mg/kg os, fourth day, 1 hr after dose

Compound | Change in BP, 1 hr after dose, fourth day [mm Hg] | Change in HR, 1 hr after dose, fourth day
CN1C[C@H](CC(C#N)C(N)=O)C[C@@H]2c3cccc4[nH]cc(c34)C[C@H]21 (stereo partly drawn) [355/1057, 2-Cyano-3-(6'-methylergoline-8'β)-propionamide] | -45 | +25 b/min
CN1C[C@H](CC(C#N)C(=O)NCc2ccccc2)C[C@@H]2c3cccc4[nH]cc(c34)C[C@H]21 (stereo partly drawn) [Example 1131, 2-Cyano-3-(6'-methylergoline-8'β)-N-benzylpropionamide] | -17 | +18 b/min

Same assay, conditions: 5 mg/kg os, fourth day, 5 hr after dose

Compound | Change in HR, 5 hr after dose, fourth day
CN1C[C@H](CC(C#N)C(N)=O)C[C@@H]2c3cccc4[nH]cc(c34)C[C@H]21 (stereo partly drawn) [355/1057, 2-Cyano-3-(6'-methylergoline-8'β)-propionamide] | +20 b/min
CN1C[C@H](CC(C#N)C(=O)NCc2ccccc2)C[C@@H]2c3cccc4[nH]cc(c34)C[C@H]21 (stereo partly drawn) [Example 1131, 2-Cyano-3-(6'-methylergoline-8'β)-N-benzylpropionamide] | -8 b/min

Same assay, conditions: 5 mg/kg os, fourth day, 5 hrs after dose

Compound | Change in BP, 5 hrs after dose, fourth day [mm Hg]
CN1C[C@H](CC(C#N)C(N)=O)C[C@@H]2c3cccc4[nH]cc(c34)C[C@H]21 (stereo partly drawn) [355/1057, 2-Cyano-3-(6'-methylergoline-8'β)-propionamide] | -31
CN1C[C@H](CC(C#N)C(=O)NCc2ccccc2)C[C@@H]2c3cccc4[nH]cc(c34)C[C@H]21 (stereo partly drawn) [Example 1131, 2-Cyano-3-(6'-methylergoline-8'β)-N-benzylpropionamide] | -16

Reference: patent US4321381A, “Ergot derivatives” (Farmitalia Carlo Erba S.p.A., priority 1978, dated 1982)
